Entries after “also recorded” stand apart in the source; their conditions may differ.
Assays:
[1] = molecular target: T1, human CYP2D6 (Homo sapiens, UniProt P10635); test: Inhibition of human CYP450 isoforms (Vivid kits); assay type: in vitro ADME; conditions: recombinant CYP2D6, 10 min
T1 construct: purchased Thermo Fisher Scientific
Protocol: nonlinear regression analysis using GraphPad Prism 9.0 software. All values are expressed as […]
Table S10. The viability of cells. neurotoxicity immuntoxicity
The results (viability values) are provided as a percentage of live cells with respect to DMSO (control sample)
Table S11. The viability of cells. […]
Inhibition of human CYP450 isoforms
The inhibitory potential of compound 6 toward human CYP1A2, CYP2C9, CYP2D6, and CYP3A4 enzymes was assessed using Vivid® CYP450 Screening Kits (Thermo Fisher Scientific, Waltham, MA, USA). A six -point concentration gradient of compound 6 was prepared in reaction buffer and pipetted onto a black 96 -well plate (Brand, Wertheim Germany) and then a mixture of the respective recombinant CYP isoenzyme and the NADPH regeneration system was added, following the manufacturer’s instructions. The DMSO concentration was maintained at 0.5% in all reaction v ariants including controls. […]
adding NADP+ and the respective CYP isoenzyme substrate. After a further 10-minute incubation at 37°C, the formation of the reaction product was measured as fluorescence using a SPARK microplate reader (TECAN, Männedorf, Switzerland). The half-maximal inhibitory concentration (IC50) values were calculated by fitting the data to sigmoidal Hill curves using GraphPad Prism version 10.1.2. […]

[2] = system: mice; test: Forced swim test (FST); assay type: in vivo; conditions: 1 mg/kg i.p., vs control
Protocol: Animals and housing conditions
In all pharmacodynamic in vivo experiments, except for the Barnes maze (BM) task, adult male Albino Swiss (CD-1) mice weighing between 18 and 22 g and purchased from the Animal Breeding Farm of the Faculty of Pharmacy, Jagiellonian University Medical College were used. In BM task, C57BL/6J mice of the same weight (Animalab, Poland) were used.
Animals were housed in cages (10 mice per cage) at a constant temperature of 22 ± 2 °C, humidity of 55 ± 10%, and a light/dark (12:12) cycle (lights on at 7 AM). Before the experiments, the animals had unlimited access to food and water. […]
Briefly, mice were individually placed in a glass cylinder (25 cm high, 10 cm in diameter) containing 11 cm of water maintained at 23–25 °C and were left therein for 6 min. […] The total duration of immobility was measured during the final 4 min of a 6-min test session. […]
The four-plate apparatus (FPT; Bioseb, France) consists of a cage (25 × 18 × 16 cm) that is floored with four rectangular metal plates (11 × 8 cm). […] The number of punished crossings was counted […]
of the closed arms. […] The following parameters were measured in this test: time spent in open arms of the EPM device and the number of entries to open arms. […]

T1 sequence (P10635 whole entry, canonical isoform): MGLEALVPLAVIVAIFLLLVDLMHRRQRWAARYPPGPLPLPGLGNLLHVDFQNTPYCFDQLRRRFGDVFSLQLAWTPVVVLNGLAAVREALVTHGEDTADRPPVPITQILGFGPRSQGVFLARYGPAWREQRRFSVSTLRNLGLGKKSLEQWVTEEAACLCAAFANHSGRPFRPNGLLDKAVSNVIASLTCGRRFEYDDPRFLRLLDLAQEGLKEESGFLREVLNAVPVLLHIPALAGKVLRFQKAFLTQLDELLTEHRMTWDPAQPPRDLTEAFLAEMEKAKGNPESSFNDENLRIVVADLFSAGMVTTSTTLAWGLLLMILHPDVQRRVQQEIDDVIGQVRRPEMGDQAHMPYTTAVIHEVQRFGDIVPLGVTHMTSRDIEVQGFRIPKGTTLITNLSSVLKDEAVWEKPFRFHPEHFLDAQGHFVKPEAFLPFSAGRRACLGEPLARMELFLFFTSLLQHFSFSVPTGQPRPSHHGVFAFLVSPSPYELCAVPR

## O[C@H](CNCC1CC1)[C@H](Cc1ccccc1)NC1c2ccccc2-c2ccccc21 [Compound 6]
[1]
  CYP2D6 inhibition: CYP2D6 inhibitor
[2]
  duration of immobility: reduced immobility; also recorded: mild yet statistically significant antidepressant activity
